Test results taken from patent publication US9242996B2 (Novartis AG, priority 2013, dated 2016).

molecular target: activated ERK2 (Homo sapiens (Human), UniProt P28482); assay: Activated ERK2 kinase assay, ERK2 New conditions (AlphaScreen, ERKtide phosphorylation); type: biochemical; details: 0.25 nM ERK2, 200 nM ERKtide peptide, 35 μM ATP, 30 min preincubation
Summary of the method: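 Read-out is AlphaScreen with anti-phospho-EGFR (Thr669) antibody after EDTA quench and overnight dark incubation. Reaction: 0.25 nM ERK2, 30 min compound preincubation, then 200 nM ERKtide plus 35 µM ATP for 2–3 h at ambient temperature, pH 7.5. IC50 by four-parameter fit.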

activated ERK2, sequence (P28482 whole entry): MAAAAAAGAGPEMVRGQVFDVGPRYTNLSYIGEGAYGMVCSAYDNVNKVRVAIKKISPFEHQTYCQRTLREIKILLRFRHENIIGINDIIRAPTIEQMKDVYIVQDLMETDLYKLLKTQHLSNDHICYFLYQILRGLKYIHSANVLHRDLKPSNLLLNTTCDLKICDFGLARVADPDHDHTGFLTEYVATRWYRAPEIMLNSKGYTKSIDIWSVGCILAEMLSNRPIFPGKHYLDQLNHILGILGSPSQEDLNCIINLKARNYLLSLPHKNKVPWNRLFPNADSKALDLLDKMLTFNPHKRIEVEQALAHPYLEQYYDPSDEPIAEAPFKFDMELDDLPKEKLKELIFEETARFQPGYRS

| SMILES | IC50 |
| --- | --- |
| COC(=O)[C@@H]1C[C@H](c2cnc(N)c(-c3ccc(C(=O)N[C@H](CO)c4cccc(Cl)c4)c(F)c3)c2)CN1 [Example 223, (2S,4R)-methyl 4-(6-amino-5-(4-(((S)-1-(3-chlorophenyl)-2-hydroxyethyl)carbamoyl)-3-fluorophenyl)pyridin-3-yl)pyrrolidine-2-carboxylate] | 10.4 nM |
| Nc1ncc(C2COC2)nc1-c1ccc(C(=O)N[C@H](CO)c2ccccc2)c(F)c1 [Example 224, (S)-4-(3-amino-6-(oxetan-3-yl)pyrazin-2-yl)-2-fluoro-N-(2-hydroxy-1-phenylethyl)benzamide] | 18.8 nM |
| Cn1nccc1-c1cnc(N)c(-c2ccc(C(=O)N[C@H](CO)c3cccc(F)c3)c(F)c2)c1 [Example 229, (S)-4-(2-amino-5-(1-methyl-1H-pyrazol-5-yl)pyridin-3-yl)-2-fluoro-N-(1-(3-fluorophenyl)-2-hydroxyethyl) benzamide] | 1.07 nM |
| Cn1nccc1-c1cnc(N)c(-c2ccc(C(=O)N[C@H](CO)c3cccc(S(C)(=O)=O)c3)c(F)c2)c1 [Example 230, (S)-4-(2-amino-5-(1-methyl-1H-pyrazol-5-yl)pyridin-3-yl)-2-fluoro-N-(2-hydroxy-1-(3-(methylsulfonyl)phenyl)ethyl) benzamide] | 0.899 nM |
| Cc1cccc([C@@H](CO)NC(=O)c2ccc(-c3cc(-c4ccnn4C)cnc3N)cc2F)c1 [Example 231, (S)-4-(2-amino-5-(1-methyl-1H-pyrazol-5-yl)pyridin-3-yl)-2-fluoro-N-(2-hydroxy-1-(m-tolyl)ethyl) benzamide] | 0.217 nM |
| Cn1nccc1-c1cnc(N)c(-c2ccc(C(=O)N[C@H](CO)c3cc(F)cc(Cl)c3)c(F)c2)c1 [Example 232, (S)-4-(2-amino-5-(1-methyl-1H-pyrazol-5-yl)pyridin-3-yl)-N-(1-(3-chloro-5-fluorophenyl)-2-hydroxyethyl)-2-fluorobenzamide] | 0.257 nM |
| Cn1cncc1-c1cnc(N)c(-c2ccc(C(=O)N[C@H](CO)c3cccc(F)c3)c(F)c2)c1 [Example 234, (S)-4-(2-amino-5-(1-methyl-1H-imidazol-5-yl)pyridin-3-yl)-2-fluoro-N-(1-(3-fluorophenyl)-2-hydroxyethyl) benzamide] | 1.47 nM |
| Cn1cncc1-c1cnc(N)c(-c2ccc(C(=O)N[C@H](CO)c3cccc(Cl)c3)c(F)c2)c1 [Example 235, (S)-4-(2-amino-5-(1-methyl-1H-imidazol-5-yl)pyridin-3-yl)-N-(1-(3-chlorophenyl)-2-hydroxyethyl)-2-fluorobenzamide] | 0.326 nM |
| Cn1cc(-c2cnc(N)c(-c3ccc(C(=O)NCc4cccc(Cl)n4)c(F)c3)c2)cn1 [Example 236, 4-(2-amino-5-(1-methyl-1H-pyrazol-4-yl)pyridin-3-yl)-N-((6-chloropyridin-2-yl)methyl)-2-fluorobenzamide] | 56.6 nM |
| Cn1cc(CNC(=O)c2ccc(-c3cc(-c4cnn(C)c4)cnc3N)cc2F)cn1 [Example 237, 4-(2-amino-5-(1-methyl-1H-pyrazol-4-yl)pyridin-3-yl)-2-fluoro-N-((1-methyl-1H-pyrazol-4-yl)methyl) benzamide] | 2610 nM |
| Cn1cc(-c2cnc(N)c(-c3ccc(C(=O)NCc4nccs4)c(F)c3)c2)cn1 [Example 238, 4-(2-amino-5-(1-methyl-1H-pyrazol-4-yl)pyridin-3-yl)-2-fluoro-N-(thiazol-2-ylmethyl) benzamide] | 352 nM |
| Cn1cc(-c2cnc(N)c(-c3ccc(C(=O)NCc4ccsc4)c(F)c3)c2)cn1 [Example 239, 4-(2-amino-5-(1-methyl-1H-pyrazol-4-yl)pyridin-3-yl)-2-fluoro-N-(thiophen-3-ylmethyl) benzamide] | 28.5 nM |
| Cn1cc(-c2cnc(N)c(-c3ccc(C(=O)NCc4cccc(C(F)F)c4)c(F)c3)c2)cn1 [Example 245, 4-(2-amino-5-(1-methyl-1H-pyrazol-4-yl)pyridin-3-yl)-N-(3-(difluoromethyl)benzyl)-2-fluorobenzamide] | 2.67 nM |
| Cn1cc(-c2cnc(N)c(-c3ccc(C(=O)NCc4cccc(Br)c4)c(F)c3)c2)cn1 [Example 246, 4-(2-amino-5-(1-methyl-1H-pyrazol-4-yl)pyridin-3-yl)-N-(3-bromobenzyl)-2-fluorobenzamide] | 1.52 nM |
| Cc1c(-c2cnc(N)c(-c3ccc(C(=O)N[C@H](CO)c4ccccc4)c(F)c3)n2)cnn1C [Example 247, (S)-4-(3-amino-6-(1,5-dimethyl-1H-pyrazol-4-yl)pyrazin-2-yl)-2-fluoro-N-(2-hydroxy-1-phenylethyl) benzamide] | 0.73 nM |
| Nc1ncc(C2CC2)nc1-c1ccc(C(=O)N[C@H](CO)c2ccccc2)c(F)c1 [Example 251, (S)-4-(3-amino-6-cyclo-propylpyrazin-2-yl)-2-fluoro-N-(2-hydroxy-1-phenylethyl) benzamide] | 7.04 nM |

| SMILES | IC50 |
| --- | --- |
| NC[C@@H](NC(=O)c1ccc(-c2nc(C3CC3)cnc2N)cc1F)c1ccccc1 [Example 252, (S)-N-(2-amino-1-phenylethyl)-4-(3-amino-6-cyclo-propylpyrazin-2-yl)-2-fluorobenzamide] | 2.6 nM |
| Nc1ncc(-c2cn[nH]c2)nc1-c1ccc(C(=O)N[C@H](CO)c2ccccc2)c(F)c1 [Example 268, (S)-4-(3-amino-6-(1H-pyrazol-4-yl)pyrazin-2-yl)-2-fluoro-N-(2-hydroxy-1-phenylethyl) benzamide] | 4.8 nM |
| Cc1cc(-c2cc(-c3cnn(C)c3)cnc2N)ccc1C(=O)N[C@H](CO)c1ccccc1 [Example 269, (S)-4-(2-amino-5-(1-methyl-1H-pyrazol-4-yl)pyridin-3-yl)-N-(2-hydroxy-1-phenylethyl)-2-methylbenzamide] | 1.08 nM |
| Cn1cc(-c2cnc(N)c(-c3ccc(C(=O)N[C@H](CO)c4cccc(F)c4)c(F)c3)n2)cn1 [Example 280, (S)-4-(3-amino-6-(1-methyl-1H-pyrazol-4-yl)pyrazin-2-yl)-2-fluoro-N-(1-(3-fluorophenyl)-2-hydroxyethyl) benzamide] | 1.66 nM |
| CS(=O)(=O)c1cccc([C@@H](CO)NC(=O)c2ccc(-c3nc(C4CC4)cnc3N)cc2F)c1 [Example 281, (S)-4-(3-amino-6-cyclo-propylpyrazin-2-yl)-2-fluoro-N-(2-hydroxy-1-(3-(methylsulfonyl)phenyl)ethyl) benzamide] | 1.79 nM |
| Cc1nn(C)cc1-c1cnc(N)c(-c2ccc(C(=O)N[C@H](CO)c3cccc(F)c3)c(F)c2)c1 [Example 282, (S)-4-(2-amino-5-(1,3-dimethyl-1H-pyrazol-4-yl)pyridin-3-yl)-2-fluoro-N-(1-(3-fluorophenyl)-2-hydroxyethyl) benzamide] | 1.2 nM |
| Cc1nn(C)cc1-c1cnc(N)c(-c2ccc(C(=O)N[C@H](CO)c3cccc(S(C)(=O)=O)c3)c(F)c2)c1 [Example 284, (S)-4-(2-amino-5-(1,3-dimethyl-1H-pyrazol-4-yl)pyridin-3-yl)-2-fluoro-N-(2-hydroxy-1-(3-(methylsulfonyl)phenyl)ethyl) benzamide] | 0.296 nM |
| CS(=O)(=O)c1cc(F)cc(CNC(=O)c2ccc(-c3nc(C4CC4)cnc3N)cc2F)c1 [Example 286, 4-(3-amino-6-cyclo-propylpyrazin-2-yl)-2-fluoro-N-(3-fluoro-5-(methylsulfonyl)benzyl)benzamide] | 3.9 nM |
| C[C@@H](NC(=O)c1ccc(-c2nc(C3CC3)cnc2N)cc1F)c1cc(F)cc(S(C)(=O)=O)c1 [Example 287, (R)-4-(3-amino-6-cyclo-propylpyrazin-2-yl)-2-fluoro-N-(1-(3-fluoro-5-(methylsulfonyl)phenyl)ethyl) benzamide] | 0.794 nM |
| C[C@@H](NC(=O)c1ccc(-c2cc(C3CC3)cnc2N)cc1F)c1cc(F)cc(S(C)(=O)=O)c1 [Example 288, (R)-4-(2-amino-5-cyclo-propylpyridin-3-yl)-2-fluoro-N-(1-(3-fluoro-5-(methylsulfonyl)phenyl)ethyl) benzamide] | 2.03 nM |
| Nc1ncc(-c2cn[nH]c2)cc1-c1ccc(C(=O)N[C@H](CO)c2ccccc2)c(F)c1 [Example 290, (S)-4-(2-amino-5-(1H-pyrazol-4-yl)pyridin-3-yl)-2-fluoro-N-(2-hydroxy-1-phenylethyl) benzamide] | 1.74 nM |
| CC(C)n1cc(-c2cnc(N)c(-c3ccc(C(=O)N[C@H](CO)c4cccc(S(C)(=O)=O)c4)c(F)c3)c2)cn1 [Example 291, (S)-4-(2-amino-5-(1-isopropyl-1H-pyrazol-4-yl)pyridin-3-yl)-2-fluoro-N-(2-hydroxy-1-(3-(methylsulfonyl)phenyl)ethyl) benzamide] | 1.48 nM |
| CC(C)n1cc(-c2cnc(N)c(-c3ccc(C(=O)N[C@H](CO)c4cccc(F)c4)c(F)c3)c2)cn1 [Example 292, (S)-4-(2-amino-5-(1-isopropyl-1H-pyrazol-4-yl)pyridin-3-yl)-2-fluoro-N-(1-(3-fluorophenyl)-2-hydroxyethyl) benzamide] | 2.82 nM |
| Cc1c(-c2cnc(N)c(-c3ccc(C(=O)N[C@H](CO)c4cccc(F)c4)c(F)c3)c2)cnn1C [Example 295, (S)-4-(2-amino-5-(1,5-dimethyl-1H-pyrazol-4-yl)pyridin-3-yl)-2-fluoro-N-(1-(3-fluorophenyl)-2-hydroxyethyl) benzamide] | 0.595 nM |
| CCn1cc(-c2cnc(N)c(-c3ccc(C(=O)N[C@H](CO)c4cccc(S(C)(=O)=O)c4)c(F)c3)c2)cn1 [Example 296, (S)-4-(2-amino-5-(1-ethyl-1H-pyrazol-4-yl)pyridin-3-yl)-2-fluoro-N-(2-hydroxy-1-(3-(methylsulfonyl)phenyl)ethyl) benzamide] | 1.08 nM |
| CCn1cc(-c2cnc(N)c(-c3ccc(C(=O)N[C@H](CO)c4cccc(F)c4)c(F)c3)c2)cn1 [Example 298, (S)-4-(2-amino-5-(1-ethyl-1H-pyrazol-4-yl)pyridin-3-yl)-2-fluoro-N-(1-(3-fluorophenyl)-2-hydroxyethyl) benzamide] | 1.95 nM |
